In patent publication US11427783B2, “Perfuming compositions” (Firmenich SA, priority 2016, dated 2022):
Read-outs that look alike come from different tables or passages of the source.

Experiment: Volatility of perfuming compounds in air
Assay type: physicochemical
[1] = Table 10, perfuming compounds having a woody note
[2] = Table 8, perfuming compounds having a sweet note
[3] = Table 9, perfuming compounds having a gourmand note
[4] = Table 6, perfuming compounds having a fruity note
[5] = Table 5, perfuming compounds having a green note

Compound: CC1C(C)(C)C2=C(C(=O)CCC2)C1(C)C (centres unmarked)
- Volatility (μg/l air) [1]: 29.81 μg/l air

Compound: CC(=O)OCCC1CCCCC1 [2-CYCLOHEXYLETHYL ACETATE]
- Volatility (μg/l air) [2]: 489.45 μg/l air
- Volatility (μg/l air) [3]: 489.45 μg/l air

Compound: CC1=C(O)C(=O)CC1 [2-HYDROXY-3-METHYL-2-CYCLOPENTEN-1-ONE]
- Volatility (μg/l air) [2]: 396.50 μg/l air

Compound: CC1CC(C)(c2ccccc2)OC(C)O1 (centres unmarked)
- Volatility (μg/l air) [4]: 113.83 μg/l air

Compound: C[C@@H]1CC[C@H]2C(C)(C)[C@H]3C[C@@]12C[C@@H]1OC(C)(C)O[C@@]13C
- Volatility (μg/l air) [1]: 0.00 μg/l air

Compound: CC(C)C(=O)OCCc1ccccc1 [2-PHENYLETHYL ISOBUTYRATE]
- Volatility (μg/l air) [4]: 67.38 μg/l air
- Volatility (μg/l air) [2]: 67.38 μg/l air
- Volatility (μg/l air) [3]: 67.38 μg/l air

Compound: COC(=O)Cc1ccccc1 [METHYL PHENYLACETATE]
- Volatility (μg/l air) [2]: 555.30 μg/l air
- Volatility (μg/l air) [3]: 555.30 μg/l air

Compound: CC(C)=CCC/C(C)=C\CO
- Volatility (Table 7, citrus note): 86.02 μg/l air

Compound: CC(=O)OC/C=C(\C)CCC=C(C)C [(E)-3,7-DIMETHYL-2,6-OCTADIENYL ACETATE]
- Volatility (μg/l air) [4]: 85.23 μg/l air

Compound: 3,7-DIMETHYL-2,6-NONADIENENITRILE (A) + 3,7-DIMETHYL-3,6-NONADIENENITRILE (B)
- Volatility [5]: 78.89 μg/l air

Compound: Cc1cnc(C)c(C)n1 [2,3,5-TRIMETHYLPYRAZINE]
- Volatility (μg/l air) [2]: 7897.31 μg/l air

Compound: CCCC1CCC(O)C(OC)C1 (centres unmarked) [2-METHOXY-4-PROPYL-1-CYCLOHEXANOL]
- Volatility: 189.74 μg/l air

Compound: CC(C)=CC1CC(C)CCO1 (centres unmarked)
- Volatility [5]: 2483.93 μg/l air

Compound: C=C1CCCC(C)(C)C1C(=O)/C=C/C (racemic)
- Volatility (μg/l air) [2]: 152.99 μg/l air
- Volatility (μg/l air) [3]: 152.99 μg/l air

Compound: CCCC(O)CCC1C(C)CCC(C)C1(C)C (racemic)
- Volatility (μg/l air) [1]: 3.42 μg/l air

Compound: CCCC=C1OC(=O)c2ccccc21 [3-BUTYLIDENE-1-BENZO[C]FURANONE]
- Volatility (μg/l air) [2]: 14.37 μg/l air
- Volatility (μg/l air) [3]: 14.37 μg/l air

Compound: c1ccc(CCCc2ccccn2)cc1 [2-(3-PHENYLPROPYL)PYRIDINE]
- Volatility [5]: 3.83 μg/l air

Compound: CCC(=CCC1CC=C(C)C1(C)C)CO (racemic)
- Volatility (μg/l air) [1]: 3.69 μg/l air

Compound: N#C/C=C/c1ccccc1 [(E)-3-PHENYL-2-PROPENENITRILE]
- Volatility (μg/l air) [1]: 66.00 μg/l air

Compound: CCCCCC1CCCC1O (racemic) [(+−)-2-PENTYL-1-CYCLOPENTANOL]
- Volatility (μg/l air) [2]: 97.79 μg/l air

Compound: CCCCC/C=C\CCC=O [(Z)-4-DECENAL]
- Volatility [5]: 629.54 μg/l air

Compound: CC(C)=CCC/C(C)=C/CO
- Volatility (Table 7, citrus note): 89.88 μg/l air

Compound: CCOC(=O)C1OC1(C)c1ccccc1 (centres unmarked) [ETHYL 2,3-EPDXY-3-PHENYLBUTANOATE]
- Volatility (μg/l air) [4]: 12.97 μg/l air

Compound: CCCC(=NO)C(C)C [2-METHYL-3-HEXANONE OXIME]
- Volatility [5]: 687.75 μg/l air

Compound: CCC(C)C(=O)OCCc1ccccc1 (racemic) [(+−)-2-PHENYLETHYL 2-METHYLBUTANOATE]
- Volatility (μg/l air) [4]: 37.73 μg/l air

Compound: CC1CCCC2(C)CCCCC12O (racemic)
- Volatility [5]: 330.48 μg/l air

Compound: CCC/C=C/CO [(E)-2-HEXEN-1-OL]
- Volatility [5]: 3752.17 μg/l air

Compound: CC(=O)OCCC(C)CCC=C(C)C (centres unmarked) [3,7-DIMETHYL-6-OCTENYL ACETATE]
- Volatility (μg/l air) [4]: 128.72 μg/l air

Compound: CCCOC(C)OCCc1ccccc1 (centres unmarked) [1-PHENYL-2-(1-PROPOXYETHOXY)ETHANE]
- Volatility [5]: 59.63 μg/l air

Compound: COc1ccc(COC(C)=O)cc1 [4-METHOXYBENZYL ACETATE]
- Volatility (μg/l air) [4]: 17.59 μg/l air

Compound: CC(C)CC(=O)OCc1ccccc1 [BENZYL 3-METHYLBUTANOATE]
- Volatility (μg/l air) [4]: 63.56 μg/l air
- Volatility (μg/l air) [2]: 63.56 μg/l air

Compound: CCCCCC1CCC(=O)O1 (racemic) [(+−)-4-NONANOLIDE]
- Volatility (μg/l air) [4]: 27.42 μg/l air
- Volatility (μg/l air) [3]: 27.42 μg/l air

Compound: CC(=O)/C(C)=C(/C)C(C)C(C)(C)C (racemic)
- Volatility (μg/l air) [1]: 659.22 μg/l air

Compound: SCc1ccco1 [2-FURANMETHANETHIOL]
- Volatility (μg/l air) [2]: 29677.31 μg/l air

Compound: CCC(C)C1(C)COC(C2CCC(C)=CC2C)OC1 (centres unmarked)
- Volatility (μg/l air) [1]: 3.82 μg/l air

Compound: COC(OC)C(C)c1ccccc1 (centres unmarked) [1,1-DIMETHOXY-2-PHENYLPROPANE]
- Volatility [5]: 376.94 μg/l air

Compound: COC(C)(C)CCCC(C)C(C)O (racemic)
- Volatility (μg/l air) [1]: 35.54 μg/l air

Compound: CC(=O)CCc1ccc(O)cc1 [4-(4-HYDROXY-1-PHENYL)-2-BUTANONE]
- Volatility (μg/l air) [4]: 0.36 μg/l air

Compound: CCOCOC1CCCCCCCCCCC1 [(ETHOXYMETHOXY)CYCLODODECANE]
- Volatility (μg/l air) [1]: 6.63 μg/l air

Compound: COc1ccc(C=O)cc1 [4-METHOXYBENZALDEHYDE]
- Volatility [5]: 98.47 μg/l air

Compound: CC/C=C\CCO [(Z)-3-HEXEN-1-OL]
- Volatility [5]: 5986.62 μg/l air

Compound: CC(CC=O)CC(C)(C)C (racemic) [(+−)-3,5,5-TRIMETHYLHEXANAL]
- Volatility [5]: 12045.92 μg/l air
